Data on 2 compounds can be found in patent US20240226107A1, “UBIQUITIN-SPECIFIC PROTEASE 1 (USP1) INHIBITOR” (SIMCERE ZAIMING PHARMACEUTICAL CO., LTD., priority 2021, published 2024).

Data set [1] addresses USP1 (Recombinant Human His6-USP1/His6-UAF1 Complex Protein) (Homo sapiens (Human), UniProt O94782). The data set can be described thus: In vitro activity assay for USP1 (Ub-CHOP2-Reporter deubiquitination assay). It counts as biochemical. Particulars: 0.5 h incubation at room temperature, read-out: In vitro inhibitory activity of USP1 IC50. In outline: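 His6-USP1/His6-UAF1 complex was mixed with compound in 20 mM Tris-HCl pH 8.0, 2 mM CaCl2, 2 mM β-mercaptoethanol and 0.05% CHAPS. Ub-CHOP2 reporter system plus substrate was added, then incubated 0.5 h at room temperature. IC50 came from a four-parameter logistic fit.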

Another data set addresses CYP1A2 (Homo sapiens (Human), UniProt P05177). Nature of the data set: CYP enzyme inhibition in pooled human liver microsomes (phenacetin). It counts as in vitro ADME. How it is done:
(§1) Typical substrate metabolic responses of five major human CYP subtypes (CYP1A2, CYP2C9, CYP2C19, CYP2D6, CYP3A4) were evaluated using 150-donor pooled human liver microsomes (purchased from Corning, Cat. No.: 452117). The influence of different concentrations of each compound to be tested on metabolic responses of phenacetin (CYP1A2), diclofenac sodium (CYP2C9), S-mephenytoin (CYP2C19), bufuralol hydrochloride (CYP2D6), and midazolam (CYP3A4) was determined by liquid chromatography-mass spectrometry (LC/MS/MS). […] Then 200 μL of acetonitrile solution containing 3% formic acid and 40 nM internal standard verapamil was added and centrifuged at 4000 rpm for 50 min. The mixture was cooled on ice for 20 min and centrifuged at 4000 rpm for 20 min to precipitate the protein. Then 200 μL of supernatant was analyzed by LC-MS/MS. The peak area was calculated from the chromatogram. The residual activity ratio (%) was calculated according to the following equation: Peak area ratio=metabolite peak area/internal standard peak area Residual activity ratio (%)=peak area ratio of compounds-to-be-tested group/peak area ratio of blank group The half inhibitory concentration (IC50) for CYP was calculated by Excel XLfit 5.3.1.3.
(Liver microsomes are vesicles of endoplasmic reticulum, rich in cytochrome P450 enzymes.)

Another data set addresses CYP2C9 (Homo sapiens (Human), UniProt P11712). Nature of the data set: CYP enzyme inhibition in pooled human liver microsomes (diclofenac sodium). It counts as in vitro ADME. How it is done: as §1
The target in a further data set is CYP2C19 (Homo sapiens (Human), UniProt P33261). The data set can be described thus: CYP enzyme inhibition in pooled human liver microsomes (S-mephenytoin). It counts as in vitro ADME. On the procedure: as §1
The target of another data set is CYP2D6 (Homo sapiens (Human), UniProt P10635). Nature of the data set: CYP enzyme inhibition in pooled human liver microsomes (bufuralol hydrochloride). It counts as in vitro ADME. On the procedure:
as §1

A further data set concerns the target CYP3A4 (Homo sapiens (Human), UniProt P08684). The data set can be described thus: CYP enzyme inhibition in pooled human liver microsomes (midazolam). The format is in vitro ADME. How it is done: as §1
A further data set addresses PXR (Homo sapiens (Human), UniProt O75469). The data set can be described thus: Potential for PXR activation in DPX2 cells. The format is cell-based. The note with it: versus 20 μM rifampicin. On the procedure:
DMSO solutions of the compounds to be tested and the control compound rifampicin solution were prepared, and diluted with Puracyp dosing medium (Puracyp, Cat. No: D-500-100) at 37° C. to respective test concentrations. The final concentrations of the compounds to be tested were 30 μM, 10 μM, and 1 μM, respectively, and the final concentration of rifampicin was 20 μM. The final concentration of DMSO in the test solution was 0.1%. In addition, 0.1% DMSO solution prepared with Puracyp dosing medium was used as a control.
DPX2 cells were suspended in Puracyp Culture medium (Puracyp, Cat No.: C-500-100) at a cell density of 4.5×10^5 cell/mL. Then, the suspension was placed on a 96-well culture plate at 100 μL/well for incubation at 37° C. for 24 h. The medium in appropriate wells of the 96-well culture plate was replaced (three times per well) by 100 μL of solution of the compounds to be tested and a control compound solution. After replacement, the plate was incubated at 37° C. for 24 h. The medium was then replaced (three times per well) by a newly prepared test solution of the compounds to be tested and a rifampicin test solution, and the plate was incubated at 37° C. for 24 h.
The medium in the 96-well culture plate was pipetted and washed twice with PBS. To each well, 50 μL of reagent diluted as required by CellTiter-Fluor™ Cell Viability Assay Kit (Promega, Cat. No.: G6082) was added, and incubated at 37° C. for 0.5 h. The 96-well plate was cooled to room temperature, and the fluorescence value of each well at 505 nm was measured in a fluorescence mode with a microplate reader at an excitation wavelength of 400 nm. Then, 50 μL of reagent prepared as required by One-Glo Luciferase Assay System (Promega, Cat. No.: E6120) was added to each well, and the mixture was incubated at room temperature for 5 min. The luminescence value of each well was read by using a lumen meter.
Normalized luciferase activity was determined by RLU/RFU, and the RLU and RFU of the samples were mean values of duplicate wells, respectively.
[formula] • Fold of activation: fold of activation of normalized luciferase; • RLUtest: measured luminescence value of test wells at each test dose of test compounds; • RLUvehicle: measured luminescence value of test wells when tested with the control DMSO solution; • RFUtest: measured fluorescence value of test wells at each test dose of test compounds; • RFUvehicle: measured fluorescence value of test wells when tested with the control DMSO solution.
The percentage of positive control was calculated as follows:
% Positive control=(fold activationtest compound−1)/(fold activationpositive control compound−1)×100% • % Positive control: percentage of PXR activation compared with 20 μM rifampicin activation at each test dose of test compounds; • Fold activationtest compound: fold of activation of normalized luciferase at each test dose of test compounds; • Fold activationpositive control compound: fold of activation of normalized luciferase of test compounds under 20 μM rifampicin.

Data set [2] in a line: Caco-2 permeability assay. It counts as in vitro ADME. Particulars: human, pH 7.4, Caco-2, 5 μM, 2 h. (Caco-2 monolayers are a common model of the intestinal barrier.)
Protocol: The apparent permeability coefficient (Papp) of the analytical drug was determined by liquid chromatography-mass spectrometry (LC-MS/MS) through a Caco-2 cell model.
In this test example, Caco-2 cells were purchased from American Type Culture Collection (ATCC); 4-hydroxyethyl piperazine ethane sulfonic acid (HEPES) was purchased from Beijing Solarbio Science & Technology Co., Ltd.; Hanks' balanced salt solution (HBSS) and non-essential amino acids (NEAA) were purchased from ThermoFisher Scientific; penicillin, streptomycin, and trypsin/EDTA were purchased from Solarbio; fetal bovine serum (FBS) and DMEM medium were purchased from Corning; HTS-96-well Transwell plates and other sterile consumables were purchased from Corning; Millicell resistance measuring system was purchased from Millipore; Cellometer®K2 was purchased from Nexcelom Bioscience; Infinite 200 PRO microplate reader was purchased from Tecan; and MTS2/4 orbital shaker was purchased from IKA Labortechnik.
Caco-2 cells were cultured in a culture flask. […] Cells at a confluency of 70-90% can be used to inoculate the Transwell. Prior to cell inoculation, 50 μL of cell culture medium was added to each well of the upper Transwell chamber and 25 mL of cell culture medium was added to the lower plate. The plate was incubated in an incubator (37° C., 5% CO2) for 1 h, and then inoculated with cells. After cell digestion, the cell suspension was pipetted and transferred to a round bottom centrifuge tube for centrifugation at 120 g for 5 min. […] The medium was changed as follows: transwell chambers were separated from the receiver plate, medium in the receiver plate was discarded, then medium in the Transwell chambers was discarded, and finally, 75 μL of fresh medium was added to each chamber, and 25 mL of fresh medium was added to the receiver plate.
After approximately 14 days of culture, the Caco-2 cells reached the confluency and completed differentiation. In this case, the cells can be applied to permeability assay. The monolayer resistance was measured with a resistance meter (Millipore, USA) and the resistance per well was recorded. After the measurement, the Transwell plate was put back to the incubator. Calculation of resistance: measured resistance value (ohms)×membrane area (cm^2)=TEER value (ohm·cm^2); if TEER value <230 ohms·cm^2, the well can not be used for permeability assay.
In 900 mL of purified water, 2.38 g HEPES and 0.35 g sodium bicarbonate were dissolved, then 100 mL of 10×HBSS was added and stirred well, pH was adjusted to 7.4, and finally, the resulting solution was filtered to obtain 1 L of transport buffer (HBSS, 10 mM HEPES, pH 7.4).
A DMSO stock solution of 1 mM of compound to be tested was diluted with the transport buffer to obtain 5 μM test solution. The control compound digoxin or minoxidil was diluted with DMSO to 2 mM, and diluted with the transport buffer described above to 10 μM to obtain a control compound test solution. In addition, DMSO was also diluted with the transport buffer described above to a receiving end solution containing 0.5% DMSO.
The Transwell plate was removed from the incubator. Monolayer cell membranes were rinsed twice with the transport buffer (10 mM HEPES, pH 7.4) and incubated at 37° C. for 30 min.
The transport rate of the compound from the apical side to the basolateral side was determined. […]
The transport rate of the compound from the basolateral side to the apical side was determined.
The nature of data set [3]: Metabolic stability in vitro in rat hepatocytes. It counts as in vitro ADME. Particulars: read-out: Intrinsic clearance. On the procedure:
The concentration of each compound in the reaction system was measured by LC/MS/MS to calculate the intrinsic clearance of the compounds to be tested, and evaluate the metabolic stability in vitro in rat hepatocytes.
To the incubation plate, 198 μL of 0.5×10^6 cells/mL rat hepatocyte mixture and 2.0 μL of 100 μM compound to be tested or positive control were added to initiate reaction. Incubation was performed at 900 rpm at 37° C. […] Then the mixture was vortex-mixed for 5 min. […] Then 100 μL of supernatant of each compound was transferred to a 96-well sample plate, and 100 μL of purified water was added to dilute the sample. The resulting samples were quantified by ion chromatograms. The residual rate was calculated from peak areas of the compounds to be tested or the positive control. The slope k was determined using Microsoft Excel by linear regression of natural logarithm of the residual rate to the incubation time. The intrinsic clearance (in vitro CLint, μL/min/10^6 cells) was calculated from the slope value according to the following equation: […]

Data set [4] can be described thus: Metabolic stability in vitro in human hepatocytes. It counts as in vitro ADME. Particulars: read-out: Intrinsic clearance. How it is done: The concentration of each compound in the reaction system was measured by LC/MS/MS to calculate the intrinsic clearance of the compounds to be tested, and evaluate the metabolic stability in vitro in human hepatocytes.
To the incubation plate, 198 μL of 0.5×10^6 cells/mL human hepatocyte mixture and 2.0 μL of 100 μM compound to be tested or positive control were added to initiate reaction. Incubation was performed at 900 rpm at 37° C. […] Then the mixture was vortex-mixed for 5 min. […] Then 100 μL of supernatant of each compound was transferred to a 96-well sample plate, and 100 μL of purified water was added to dilute the sample.
The resulting samples were quantified by ion chromatograms. The residual rate was calculated from peak areas of the compounds to be tested or the positive control. The slope k was determined using Microsoft Excel by linear regression of natural logarithm of the residual rate to the incubation time. The intrinsic clearance (in vitro CLint, μL/min/10^6 cells) was calculated from the slope value according to the following equation: […]

A short description of data set [5]: In vivo pharmacokinetics in SD rats. Particulars: male, rat, plasma. How it is done: Using SD rats as test animals, drug concentrations in plasma of the rats at different times after intravenous injection and intragastric administration of the compounds provided in the present application were determined by LC/MS/MS. In vivo pharmacokinetic behaviors of the compounds provided in the present application in rats were investigated to evaluate pharmacokinetic characteristics of the compounds.
There were three healthy 6-8-week-old male SD rats in each group.
Intravenous administration: A certain amount of drug was weighed, and then 10 vol % N,N-dimethylacetamide, 33 vol % triethylene glycol, and 57 vol % physiological saline were added to prepare 1 mg/mL colorless clear and transparent liquid;
Intragastric administration: A certain amount of drug was weighed, and then 0.5 wt % hydroxypropyl methylcellulose, 0.1 vol % tween 80, and 99.6 vol % physiological saline were added to prepare 1 mg/mL white suspension.
After fasting overnight, the SD rats were dosed intravenously or intragastrically.
The compounds provided in the present application were administered intravenously to the rats, then 0.2 mL of blood was collected from jugular veins respectively at 0.083, 0.25, 0.5, 1, 2, 4, 8, and 24 h after the administration, and placed in a test tube containing EDTA-K2. The test tube was then centrifuged at 4000 rpm at 4° C. for 5 min to separate plasma, and the plasma was stored at −75° C. Alternatively, the compounds provided in the present application were administered intragastrically to the rats, then 0.2 mL of blood was collected from jugular veins respectively at 0.25, 0.5, 1, 2, 4, 8, and 24 h after the administration, and placed in a test tube containing EDTA-K2. The test tube was then centrifuged at 3500 rpm at 4° C. for 10 min to separate plasma, and the plasma was stored at −75° C.
The content of the compounds to be tested in rat plasma after intravenous administration or intragastric administration at different concentrations was determined: 30 μL of rat plasma at each time after administration was taken, 200 μL (50 ng/mL) of solution of internal standard dexamethasone in acetonitrile was added, then the resulting mixture was vortex-mixed for 30 s, and centrifuged at 4700 rpm at 4° C. for 15 min, the supernatant of plasma samples was diluted three times with water, and 2.0 μL of diluted solution was taken for LC-MS/MS.

SMILES strings stand for the structures.
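Throughout, for GI50: MDA-MB-436 proliferation over 7 days with compound, viability read as ATP luminescence (CellTiter-Glo), inhibition relative to DMSO-only wells, day 0 signal as background, GI50 from four-parameter fit.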

PXR, sequence (O75469 whole entry): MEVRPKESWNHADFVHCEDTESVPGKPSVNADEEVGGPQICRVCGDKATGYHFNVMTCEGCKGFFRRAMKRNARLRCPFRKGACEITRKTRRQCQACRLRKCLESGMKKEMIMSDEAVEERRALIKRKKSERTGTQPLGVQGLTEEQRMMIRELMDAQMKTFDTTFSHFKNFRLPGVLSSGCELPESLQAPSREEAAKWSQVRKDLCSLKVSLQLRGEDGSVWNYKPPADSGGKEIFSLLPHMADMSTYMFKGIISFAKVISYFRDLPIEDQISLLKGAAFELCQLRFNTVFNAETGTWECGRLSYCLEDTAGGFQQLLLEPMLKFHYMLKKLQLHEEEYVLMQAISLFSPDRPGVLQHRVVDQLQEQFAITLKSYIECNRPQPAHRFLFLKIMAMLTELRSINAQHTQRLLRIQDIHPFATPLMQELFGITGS
CYP3A4, sequence (P08684 whole entry): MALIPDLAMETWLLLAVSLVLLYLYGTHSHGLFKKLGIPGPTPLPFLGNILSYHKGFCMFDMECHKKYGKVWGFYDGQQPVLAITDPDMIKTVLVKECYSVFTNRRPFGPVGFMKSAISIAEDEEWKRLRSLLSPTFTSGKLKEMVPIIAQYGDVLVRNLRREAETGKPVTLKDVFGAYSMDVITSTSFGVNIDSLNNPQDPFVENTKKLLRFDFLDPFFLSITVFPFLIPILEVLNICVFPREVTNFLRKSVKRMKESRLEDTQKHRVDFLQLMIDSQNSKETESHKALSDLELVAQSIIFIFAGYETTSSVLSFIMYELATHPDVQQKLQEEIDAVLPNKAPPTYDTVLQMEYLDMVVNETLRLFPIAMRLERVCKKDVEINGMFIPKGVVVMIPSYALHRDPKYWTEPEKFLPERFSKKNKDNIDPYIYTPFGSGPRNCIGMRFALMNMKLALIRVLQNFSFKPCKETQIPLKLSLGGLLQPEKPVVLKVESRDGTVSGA
USP1 (Recombinant Human His6-USP1/His6-UAF1 Complex Protein), sequence (O94782 whole entry): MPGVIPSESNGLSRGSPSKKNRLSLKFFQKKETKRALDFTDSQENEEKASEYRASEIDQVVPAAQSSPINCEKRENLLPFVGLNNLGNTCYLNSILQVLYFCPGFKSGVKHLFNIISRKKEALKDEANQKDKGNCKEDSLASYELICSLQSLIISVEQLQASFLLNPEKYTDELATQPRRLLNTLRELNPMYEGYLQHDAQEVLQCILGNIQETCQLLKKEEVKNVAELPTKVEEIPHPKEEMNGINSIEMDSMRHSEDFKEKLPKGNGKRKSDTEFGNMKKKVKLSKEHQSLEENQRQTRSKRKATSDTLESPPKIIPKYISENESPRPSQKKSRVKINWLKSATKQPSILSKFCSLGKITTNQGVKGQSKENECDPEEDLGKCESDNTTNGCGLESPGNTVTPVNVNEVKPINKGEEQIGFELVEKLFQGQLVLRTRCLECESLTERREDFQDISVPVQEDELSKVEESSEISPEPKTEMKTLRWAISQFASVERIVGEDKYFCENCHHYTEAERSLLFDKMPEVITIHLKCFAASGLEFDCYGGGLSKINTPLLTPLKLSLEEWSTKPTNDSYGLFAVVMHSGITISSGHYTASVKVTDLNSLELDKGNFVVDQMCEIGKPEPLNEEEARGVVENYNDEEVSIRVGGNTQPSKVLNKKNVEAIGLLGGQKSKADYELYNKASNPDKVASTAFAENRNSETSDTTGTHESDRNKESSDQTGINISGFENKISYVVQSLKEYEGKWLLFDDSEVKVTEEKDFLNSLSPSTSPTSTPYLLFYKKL
USP1 (Recombinant Human His6-USP1/His6-UAF1 Complex Protein), sequence (Q8TAF3 whole entry partner): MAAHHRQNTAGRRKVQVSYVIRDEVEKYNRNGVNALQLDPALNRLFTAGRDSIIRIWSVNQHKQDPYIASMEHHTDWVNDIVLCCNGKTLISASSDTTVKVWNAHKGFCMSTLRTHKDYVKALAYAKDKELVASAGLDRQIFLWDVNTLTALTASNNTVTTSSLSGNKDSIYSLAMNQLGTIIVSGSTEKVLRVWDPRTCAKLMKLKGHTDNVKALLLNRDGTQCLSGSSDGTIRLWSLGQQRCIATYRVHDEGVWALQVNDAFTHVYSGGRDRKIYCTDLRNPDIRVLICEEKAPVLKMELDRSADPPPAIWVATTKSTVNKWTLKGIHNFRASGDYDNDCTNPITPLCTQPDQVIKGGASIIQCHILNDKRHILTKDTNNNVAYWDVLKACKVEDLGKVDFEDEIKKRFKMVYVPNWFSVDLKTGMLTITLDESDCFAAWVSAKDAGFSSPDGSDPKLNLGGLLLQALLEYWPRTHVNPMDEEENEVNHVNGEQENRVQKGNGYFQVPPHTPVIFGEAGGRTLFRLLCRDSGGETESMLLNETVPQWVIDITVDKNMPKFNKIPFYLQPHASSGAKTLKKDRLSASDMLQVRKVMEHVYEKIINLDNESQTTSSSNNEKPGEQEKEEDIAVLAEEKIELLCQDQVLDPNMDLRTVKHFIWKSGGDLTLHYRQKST
CYP2C19, sequence (P33261 whole entry): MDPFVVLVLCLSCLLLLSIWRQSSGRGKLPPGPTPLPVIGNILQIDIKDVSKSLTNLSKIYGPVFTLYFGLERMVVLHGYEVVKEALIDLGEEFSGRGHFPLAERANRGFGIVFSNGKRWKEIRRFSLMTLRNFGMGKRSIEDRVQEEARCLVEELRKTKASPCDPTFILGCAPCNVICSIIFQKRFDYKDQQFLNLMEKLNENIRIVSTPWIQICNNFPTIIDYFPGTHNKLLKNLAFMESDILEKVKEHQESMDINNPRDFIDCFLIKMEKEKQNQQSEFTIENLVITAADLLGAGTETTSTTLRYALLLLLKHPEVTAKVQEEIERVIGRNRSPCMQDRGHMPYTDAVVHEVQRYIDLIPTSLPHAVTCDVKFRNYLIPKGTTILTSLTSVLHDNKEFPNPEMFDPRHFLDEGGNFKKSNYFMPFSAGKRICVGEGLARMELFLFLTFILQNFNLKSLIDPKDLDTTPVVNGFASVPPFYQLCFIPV
CYP2C9, sequence (P11712 whole entry): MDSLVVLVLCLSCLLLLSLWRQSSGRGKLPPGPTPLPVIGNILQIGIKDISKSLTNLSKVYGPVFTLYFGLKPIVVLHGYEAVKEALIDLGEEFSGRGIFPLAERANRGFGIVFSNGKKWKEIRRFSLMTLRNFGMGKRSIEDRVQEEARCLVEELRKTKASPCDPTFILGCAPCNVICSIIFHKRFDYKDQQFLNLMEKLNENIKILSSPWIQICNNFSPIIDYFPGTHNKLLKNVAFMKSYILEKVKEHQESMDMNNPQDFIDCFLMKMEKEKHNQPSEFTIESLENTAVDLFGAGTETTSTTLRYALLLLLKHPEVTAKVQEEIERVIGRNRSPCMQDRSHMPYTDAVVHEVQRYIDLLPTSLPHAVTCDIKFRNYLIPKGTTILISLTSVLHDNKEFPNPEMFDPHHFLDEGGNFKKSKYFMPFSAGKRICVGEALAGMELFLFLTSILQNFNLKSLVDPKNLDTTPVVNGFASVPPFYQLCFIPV
CYP1A2, sequence (P05177 whole entry): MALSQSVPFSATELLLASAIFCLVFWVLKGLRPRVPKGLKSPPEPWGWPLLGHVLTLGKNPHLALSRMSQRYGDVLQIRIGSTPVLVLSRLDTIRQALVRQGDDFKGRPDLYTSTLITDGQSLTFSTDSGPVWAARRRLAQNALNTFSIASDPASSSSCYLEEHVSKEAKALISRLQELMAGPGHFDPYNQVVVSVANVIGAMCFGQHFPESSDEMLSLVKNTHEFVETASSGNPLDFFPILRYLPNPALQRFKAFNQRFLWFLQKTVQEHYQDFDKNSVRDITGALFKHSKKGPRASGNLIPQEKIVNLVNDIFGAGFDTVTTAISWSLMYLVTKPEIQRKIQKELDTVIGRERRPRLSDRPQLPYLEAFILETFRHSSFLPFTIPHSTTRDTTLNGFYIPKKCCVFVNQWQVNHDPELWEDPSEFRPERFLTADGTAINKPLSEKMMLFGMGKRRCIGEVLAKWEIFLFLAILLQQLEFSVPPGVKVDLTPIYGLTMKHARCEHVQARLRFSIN
CYP2D6, sequence (P10635 whole entry): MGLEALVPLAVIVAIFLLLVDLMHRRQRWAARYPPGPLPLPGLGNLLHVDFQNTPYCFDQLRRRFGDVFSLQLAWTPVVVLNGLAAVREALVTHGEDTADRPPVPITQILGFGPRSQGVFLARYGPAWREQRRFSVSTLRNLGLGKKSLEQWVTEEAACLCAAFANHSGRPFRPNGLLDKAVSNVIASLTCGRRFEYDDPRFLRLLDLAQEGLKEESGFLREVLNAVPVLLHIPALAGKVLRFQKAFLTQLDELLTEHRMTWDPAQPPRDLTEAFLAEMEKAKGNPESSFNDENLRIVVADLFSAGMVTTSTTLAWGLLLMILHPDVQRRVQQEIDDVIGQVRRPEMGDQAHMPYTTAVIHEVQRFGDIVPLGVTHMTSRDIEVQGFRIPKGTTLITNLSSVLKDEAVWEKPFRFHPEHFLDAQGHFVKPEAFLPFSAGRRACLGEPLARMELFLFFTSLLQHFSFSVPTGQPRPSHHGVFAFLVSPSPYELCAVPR

Turning to `COc1ncnc(C2CC2)c1-c1ncc2c(n1)N(Cc1ccc(-n3nc(C(F)(F)F)cc3C)cc1)C(=O)OC2(C)C` [Compound 74, 7-(4-cyclopropyl-6-methoxypyrimidin-5-yl)-4,4-dimethyl-1-(4-(5-methyl-3-(trifluoromethyl)-1H-pyrazol-1-yl)benzyl)-1,4-dihydro-2H-pyrimido[4,5-d][1,3]oxazin-2-one], the IC50 (commonly the concentration that gives 50% inhibition) in [1] was 0.0173 µM; at CYP1A2, greater than 30 µM; against CYP2C9 it was 4.5 µM; at CYP2C19, 10.2 µM; against CYP2D6, greater than 30 µM; on CYP3A4, greater than 30 µM. Besides, the “PXR activation (% Positive control)” value at PXR (10 μM) was determined as 13.2 % Positive control. For the same compound, the GI50 (commonly the concentration that inhibits growth by half) with MDA-MB-436 cells was 0.0307 µM.

`COc1ncnc(C2CC2)c1-c1ncc2c(n1)N(Cc1ccc(-c3nc(C(F)(F)F)cn3C)cc1)C(=O)OC2(C)C` [Compound 50, 7-(4-cyclopropyl-6-methoxypyrimidin-5-yl)-4,4-dimethyl-1-(4-(1-methyl-4-(trifluoromethyl)-1H-imidazol-2-yl)benzyl)-1,4-dihydro-2H-pyrimido[4,5-d][1,3]oxazin-2-one]: the Papp A→B (in general, how fast a substance crosses the layer from the apical side) at 2 h, 5 μM in data set [2] (apical to basolateral) amounted to 7.5 ×10⁻⁶ cm/s. Moreover, the Papp B→A – broadly, the apparent permeability from the basolateral to the apical side of a cell layer – at 2 h, 5 μM in data set [2] (basolateral to apical) is 17.3 ×10⁻⁶ cm/s. The results for the hepatocyte CLint at 1 μM in [3] and in data set [4] were 4 µL/min/1e6 cells and less than 1 µL/min/1e6 cells, respectively. Besides, the Vd in data set [5] (IV 2 mg/kg, read-out: Apparent volume of distribution Vss_obs) worked out at 4.1 L/kg. Besides, in [5] (IV 2 mg/kg, read-out: Clearance CL_obs), the clearance (in general, the volume of plasma or blood freed of the substance per unit of time) stood at 11.4 mL/min/kg. The half-life in data set [5] (IV 2 mg/kg, read-out: Half-life period T1/2 (converted)) is 6 h. Further, the bioavailability (commonly the share of a dose that reaches the circulation, judged against a reference dose that is usually intravenous) in [5] (PO 5 mg/kg versus IV, read-out: Bioavailability F) is 47.2%. Also, the Cmax in [5] (PO 5 mg/kg, read-out: Maximum plasma concentration Cmax) amounted to 235 ng/mL. Further, at PXR (30 μM), the “PXR activation (% Positive control)” value was 32.8 % Positive control.
